Experimental data: patent publication US10011595B2 (Merck Sharp & Dohme Corp., priority 2014, dated 2018)
pIC50: −log10 of the molar value.

Target: human orexin-2 receptor (Homo sapiens (Human), UniProt O43614)
Assay: FLIPR Ca2+ Flux Assay, orexin-2 receptor
Assay type: cell-based
Details: CHO cells expressing the human orexin-2 receptor; agonist 70 pM Ala-6,12 orexin-A; read-out: hOX2R FLIPR IC50
Method: In a typical experiment the OX1 and OX2 receptor antagonistic activity of the compounds of the present invention was determined in accordance with the following experimental method. For intracellular calcium measurements, Chinese hamster ovary (CHO) cells expressing the rat orexin-1 receptor or the human orexin-2 receptor, are grown in Iscove's modified DMEM containing 2 mM L-glutamine, […], 1% hypoxanthine-thymidine supplement, 100 U/ml penicillin, 100 μg/ml streptomycin and 10% heat-inactivated fetal calf serum (FCS). The cells are seeded at 20,000 cells/well into Becton-Dickinson black 384-well clear bottom sterile plates coated with poly-D-lysine. All reagents were from GIBCO-Invitrogen Corp. The seeded plates are incubated overnight at 37° C. and 5% CO2. Ala-6,12 human orexin-A as the agonist is prepared as a 1 mM stock solution in 1% bovine serum albumin (BSA) and diluted in assay buffer (HBSS containing 20 mM HEPES, 0.1% BSA and 2.5 mM probenecid, pH7.4) for use in the assay at a final concentration of 70 pM. Test compounds are prepared as 10 mM stock solution in DMSO, then diluted in 384-well plates, first in DMSO, then assay buffer. On the day of the assay, cells are washed 3 times with 100 μl assay buffer and then incubated for 60 min (37° C., 5% CO2) in 60 μl assay buffer containing 1 μM Fluo-4AM ester, 0.02% pluronic acid, and 1% BSA. The dye loading solution is then aspirated and cells are washed 3 times with 100 μl assay buffer. 30 μl of that same buffer is left in each well. Within the Fluorescent Imaging Plate Reader (FLIPR, Molecular Devices), test compounds are added to the plate in a volume of 25 μl, incubated for 5 min and finally 25 μl of agonist is added. Fluorescence is measured for each well at 1 second intervals for 5 minutes and the height of each fluorescence peak is compared to the height of the fluorescence peak induced by 70 pM Ala-6,12 orexin-A with buffer in place of antagonist. For each antagonist, IC50 value (the concentration of compound needed to inhibit 50% of the agonist response) is determined. Alternatively, compound potency can be assessed by a radioligand binding assay (described in Bergman et. al. Bioorg. Med. Chem. Lett. 2008, 18, 1425-1430) in which the inhibition constant (Ki) is determined in membranes prepared from CHO cells expressing either the OX1 or OX2 receptor. The intrinsic orexin receptor antagonist activity of a compound which may be used in the present invention may be determined by these assays.

human orexin-2 receptor, sequence (O43614 whole entry): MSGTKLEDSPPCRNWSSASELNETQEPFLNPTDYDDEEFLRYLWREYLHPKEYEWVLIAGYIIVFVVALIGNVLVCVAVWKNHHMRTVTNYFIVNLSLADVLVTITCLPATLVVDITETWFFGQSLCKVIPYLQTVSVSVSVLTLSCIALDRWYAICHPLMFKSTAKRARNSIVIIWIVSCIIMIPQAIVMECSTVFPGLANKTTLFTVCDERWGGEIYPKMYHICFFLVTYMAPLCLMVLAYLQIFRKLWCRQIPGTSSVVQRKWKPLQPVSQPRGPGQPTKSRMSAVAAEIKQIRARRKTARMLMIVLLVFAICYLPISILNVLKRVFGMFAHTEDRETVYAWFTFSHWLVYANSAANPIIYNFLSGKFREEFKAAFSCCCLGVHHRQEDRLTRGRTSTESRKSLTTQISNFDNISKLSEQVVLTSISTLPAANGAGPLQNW

| Compound | pIC50 |
| --- | --- |
| CCN(CCN(C)c1cc(C#N)ccn1)C(=O)c1ccccc1OCC(F)(F)F [Example F-14, N-{2-[(4-cyanopyridin-2-yl)(methyl)amino]ethyl}-N-ethyl-2-(2,2,2-trifluoroethoxy)benzamide] | 7.11 |
| CCN(CCN(C)c1cccc(C(C)(C)O)n1)C(=O)c1ccccc1OC(F)(F)F [Example I-12, N-ethyl-N-(2-((6-(2-hydroxypropan-2-yl)pyridin-2-yl)(methyl)amino)ethyl)-2-(trifluoromethoxy)benzamide] | 7.13 |
| CC(C)N(CCN(C)c1cc(C#N)ccn1)C(=O)c1ccccc1-n1nccn1 [Example G-9, N-(2-((4-cyanopyridin-2-yl)(methyl)amino)ethyl)-N-isopropyl-2-(2H-1,2,3-triazol-2-yl)benzamide] | 7.12 |
| CCN(CCN(C)c1cc(C#N)ccn1)C(=O)c1c(F)cccc1-n1nccn1 [Example F-15, N-{2-[(4-cyanopyridin-2-yl)(methyl)amino]ethyl}-N-ethyl-2-fluoro-6-(2H-1,2,3-triazol-2-yl)benzamide] | 7.47 |
| CCN(CCN(C)c1cc(C#N)ccn1)C(=O)c1ccccc1-n1cccn1 [Example F-12, N-{2-[(4-cyanopyridin-2-yl)(methyl)amino]ethyl}-N-ethyl-2-(1H-pyrazol-1-yl)benzamide] | 7.30 |
| CCN(CCN(C)c1cc(C#N)ccn1)C(=O)c1ccccc1C1(C#N)CC1 [Example F-26, 2-(1-cyanocyclopropyl)-N-{2-[(4-cyanopyridin-2-yl)(methyl)amino]ethyl}-N-ethylbenzamide] | 7.72 |
| CCN(CCN(C)c1nc(C)cc(C)n1)C(=O)c1cccnc1-n1cccn1 [Example B-24, N-{2-[(4,6-dimethylpyrimidin-2-yl)(methyl)amino]ethyl}-N-ethyl-2-(1H-pyrazol-1-yl)pyridine-3-carboxamide] | 7.89 |
| CCN(CCN(C)c1nc(C)cc(C)n1)C(=O)c1cccnc1OCC(F)(F)F [Example B-11, N-(2-((4,6-dimethylpyrimidin-2-yl)(methyl)amino)ethyl)-N-ethyl-2-(2,2,2-trifluoroethoxy)nicotinamide] | 7.70 |
| CCCc1ccccc1C(=O)N(CC)CCN(C)c1nccc(C(C)(C)O)n1 [Example H-19, N-ethyl-N-(2-((4-(2-hydroxypropan-2-yl)pyrimidin-2-yl)(methyl)amino)ethyl)-2-propylbenzamide] | 7.88 |
| CN(CCN(C)c1cc(C#N)ccn1)C(=O)c1ccccc1-n1nccn1 [Example G-1, N-(2-((4-cyanopyridin-2-yl)(methyl)amino)ethyl)-N-methyl-2-(2H-1,2,3-triazol-2-yl)benzamide] | 7.06 |
| CCN(CCN(C)c1cccc(C(C)(C)O)n1)C(=O)c1cccnc1OCC(F)F [Example I-16, 2-(2,2-difluoroethoxy)-N-ethyl-N-(2-((6-(2-hydroxypropan-2-yl)pyridin-2-yl)(methyl)amino)ethyl)nicotin-amide] | 6.63 |
| CCN(CCN(C)c1nccc(C(C)(C)O)n1)C(=O)c1ccccc1CC(F)(F)F [Example H-21, N-ethyl-N-(2-((4-(2-hydroxypropan-2-yl)pyrimidin-2-yl)(methyl)amino)ethyl)-2-(2,2,2-trifluoroethyl)benzamide] | 7.75 |
| CCN(CCN(C)c1cccc(C(C)(C)O)n1)C(=O)c1ccccc1C1CC1 [Example I-13, 2-cyclopropyl-N-ethyl-N-(2-((6-(2-hydroxypropan-2-yl)pyridin-2-yl)(methyl)amino)ethyl)benz-amide] | 7.27 |
| CCN(CCN(C)c1nc(C)cc(C)n1)C(=O)c1ccccc1OC(F)F [Example B-8, 2-(difluoromethoxy)-N-(2-((4,6-dimethylpyrimidin-2-yl)(methyl)amino)ethyl)-N-ethylbenzamide] | 7.73 |
| CCN(CCN(C)c1nccc(C(C)(C)O)n1)C(=O)c1ccccc1-n1nccn1 [Example H-1, N-ethyl-N-(2-((4-(2-hydroxypropan-2-yl)pyrimidin-2-yl)(methy)amino)ethyl)-2-(2H-1,2,3-triazol-2-yl)benzamide] | 7.96 |
| CCN(CCN(C)c1cc(C#N)ccn1)C(=O)c1cc(C)ccc1-n1nccn1 [Example F-20, N-{2-[(4-cyanopyridin-2-yl)(methyl)amino]ethyl}-N-ethyl-5-methyl-2-(2H-1,2,3-triazol-2-yl)benzamide] | 7.79 |

| Compound | pIC50 |
| --- | --- |
| CCN(CCN(C)c1nccc(C#N)n1)C(=O)c1ccccc1-n1nccn1 [Example E-10, N-{2-[(4-cyanopyrimidin-2-yl)(methyl)amino]ethyl}-N-ethyl-2-(2H-1,2,3-triazol-2-yl)benzamide] | 6.61 |
| CCN(CCN(C)c1nc(C)cc(C)n1)C(=O)c1ccccc1-n1ncnn1 [Example B-31, N-{2-[(4,6-dimethylpyrimidin-2-yl)(methyl)amino]ethyl}-N-ethyl-2-(2H-tetrazol-2-yl)benzamide] | 8.06 |
| CCN(CCN(C)c1nccc(C(C)(C)O)n1)C(=O)c1ccccc1C1CC1(F)F (stereo not shown) [Example H-26, 2-(2,2-difluorocyclopropyl)-N-ethyl-N-(2-((4-(2-hydroxypropan-2-yl)pyrimidin-2-yl)(methyl)amino)ethyl) benzamide] | 7.77 |
| CCN(CCN(C)c1nc(C)cc(C)n1)C(=O)c1ccccc1-n1cccn1 [Example B-14, N-(2-((4,6-dimethylpyrimidin-2-yl)(methyl)amino)ethyl)-N-ethyl-2-(1H-pyrazol-1-yl)benzamide] | 7.86 |
| CCN(CCN(C)c1nccc(C#N)c1Cl)C(=O)c1ccccc1-n1nccn1 [Example E-8, N-{2-[(3-chloro-4-cyanopyridin-2-yl)(methyl)amino]ethyl}-N-ethyl-2-(2H-1,2,3-triazol-2-yl)benzamide] | 6.96 |
| CCN(CCN(C)c1nccc(C(C)(C)O)n1)C(=O)c1ncccc1-c1ccccc1 [Example H-31, N-ethyl-N-(2-((4-(2-hydroxypropan-2-yl)pyrimidin-2-yl)(methyl)amino)ethyl)-3-phenylpicolinamide] | 7.64 |
| CN(CCN(Cc1ccccc1)C(=O)c1ccccc1-n1nccn1)c1cc(C#N)ccn1 [Example G-6, N-benzyl-N-(2-((4-cyanopyridin-2-yl)(methyl)amino)ethyl)-2-(2H-1,2,3-triazol-2-yl)benzamide] | 6.95 |
| CCN(CCN(C)c1nccc(C(C)(C)O)n1)C(=O)c1cccnc1CC(F)(F)F [Example H-23, N-ethyl-N-(2-((4-(2-hydroxypropan-2-yl)pyrimidin-2-yl)(methyl)amino)ethyl)-2-(2,2,2-trifluoroethyl)nicotinamide] | 6.75 |
| CCN(CCN(C)c1cccc(C(C)(C)O)n1)C(=O)c1ccccc1OC(F)F [Example I-14, 2-(difluoromethoxy)-N-ethyl-N-(2-((6-(2-hydroxypropan-2-yl)pyridin-2-yl)(methyl)amino)ethyl)benz-amide] | 6.70 |
| CCN(CCN(C)c1nc(C)cc(C)n1)C(=O)c1cccnc1CC(F)(F)F [Example B-21, N-{2-[(4,6-dimethylpyrimidin-2-yl)(methyl)amino]ethyl}-N-ethyl-2-(2,2,2-trifluoroethyl)pyridine-3-carboxamide] | 6.37 |
| CCN(CCN(C)c1cccc(C(C)(C)O)n1)C(=O)c1ccccc1OCC(F)F [Example I-4, 2-(2,2-difluoroethoxy)-N-ethyl-N-(2-((6-(2-hydroxypropan-2-yl)pyridin-2-yl)(methyl)amino)ethyl)benzamide] | 6.75 |
| CCN(CCN(C)c1cccc(C(C)(C)O)n1)C(=O)c1nccnc1-n1cccn1 [Example I-11, N-ethyl-N-(2-((6-(2-hydroxypropan-2-yl)pyridin-2-yl)(methyl)amino)ethyl)-3-(1H-pyrazol-1-yl)pyrazine-2-carboxamide] | 6.48 |
| CCN(CCN(C)c1cccc(C(C)(C)O)n1)C(=O)c1cccnc1-n1cccn1 [Example I-24, N-ethyl-N-(2-((6-(2-hydroxypropan-2-yl)pyridin-2-yl)(methyl)amino)ethyl)-2-(1H-pyrazol-1-yl)nicotinamide] | 6.98 |
| CCN(CCN(C)c1cccc(C(C)(C)O)n1)C(=O)c1ccccc1OCC(F)(F)F [Example I-17, N-ethyl-N-(2-((6-(2-hydroxypropan-2-yl)pyridin-2-yl)(methyl)amino)ethyl)-2-(2,2,2-trifluoroethoxy)benzamide] | 6.49 |
| CCN(CCN(C)c1nc(Cl)cc(N(C)C)n1)C(=O)c1ccccc1-n1nccn1 [Example E-11, N-(2-{[4-chloro-6-(dimethylamino)pyrimidin-2-yl](methyl)amino}ethyl)-N-ethyl-2-(2H-1,2,3-triazol-2-yl)benzamide] | 7.74 |
